For orientation: IC50 means the concentration at which inhibition is half-maximal.

SMILES strings stand for the structures.

The target in the test is T1, human PAD4 (Homo sapiens, UniProt Q9UM07).
T1 construct: human PAD4 (NM_012387), A2-P663, was PCR amplified; His-SUMO (N, cleaved yes); made in house; host or cells: E. coli BL21(DE3)
T1 sequence (Q9UM07 2-663): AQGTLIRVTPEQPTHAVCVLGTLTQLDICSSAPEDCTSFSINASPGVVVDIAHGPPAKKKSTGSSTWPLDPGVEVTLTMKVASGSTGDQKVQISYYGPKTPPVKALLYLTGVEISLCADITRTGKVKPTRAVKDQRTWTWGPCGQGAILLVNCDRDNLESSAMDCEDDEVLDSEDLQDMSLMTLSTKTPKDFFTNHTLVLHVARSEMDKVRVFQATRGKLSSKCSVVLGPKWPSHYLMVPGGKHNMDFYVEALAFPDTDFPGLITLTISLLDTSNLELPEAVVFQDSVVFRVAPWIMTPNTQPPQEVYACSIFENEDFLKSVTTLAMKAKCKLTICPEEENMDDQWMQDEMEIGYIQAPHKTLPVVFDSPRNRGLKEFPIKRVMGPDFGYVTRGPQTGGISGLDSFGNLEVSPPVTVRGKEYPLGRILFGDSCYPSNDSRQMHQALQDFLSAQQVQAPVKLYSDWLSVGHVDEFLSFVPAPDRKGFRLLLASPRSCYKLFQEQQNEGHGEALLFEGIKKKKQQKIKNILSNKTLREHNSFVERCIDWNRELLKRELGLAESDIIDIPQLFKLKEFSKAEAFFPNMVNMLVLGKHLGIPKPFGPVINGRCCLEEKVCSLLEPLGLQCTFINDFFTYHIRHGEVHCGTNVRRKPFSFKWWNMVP
Nature of the test: In vitro PAD4 BAEE biochemical assay. The conditions noted are these: BAEE substrate 3 mM, 5 nM PAD4, 2 mM calcium chloride; geometric mean of multiple experiments. The method in brief:
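Ammonia produced by BAEE deimination (3 mM substrate, 2 h, 25 °C) was read as fluorescent isoindole after o-phthalaldehyde/DTT derivatization, ex 405 nm/em 535 nm. Human PAD4 at 5 nM final, 2 mM calcium, pH 7.6 MOPS; compound preincubated 30 min. IC50s, normalized to BB-Cl-Amidine and DMSO controls, were geometric-mean averaged.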
For the compound `CO[C@@H]1CCN(C(=O)c2cc(F)c3c(c2)nc(-c2cc4ccc5nc4n2CCCCCc2nc4ccccc4nc2C(=O)N[C@@H]5C)n3C2CC2)C[C@@H]1N` [Example 828, (2~{R})-21-[5-[(3~{S), 4~{R})-3-amino-4-methoxy-piperidine-1-carbonyl]-1-cyclopropyl-7-fluoro-benzimidazol-2-yl]-2-methyl-3,6,13,20,26-pentazapentacyclo [18.5.2.0^{5,14}.0^{7, 12}.0^{23,27}]heptacosa-1(26),5(14),6,8,10,12,21,23(27), 24-nonaen-4-one], the IC50 amounted to 24 nM.
To `CO[C@@H]1CCN(C(=O)c2cc(F)c3c(c2)nc(-c2cc4ccc5nc4n2CCCCCc2nc4ccccc4cc2C(=O)N[C@@H]5C)n3C2CC2)C[C@@H]1N` [Example 829, (2~{R})-21-[5-[(3~{S},4~ {R})-3-amino-4-methoxy-piperidine-1-carbonyl]-1-cyclopropyl-7-fluoro-benzimidazol-2-yl]-2-methyl-3,13,20,26-tetrazapentacyclo [18.5.2.0^{5,14}.0^{7,1 2}.0^{23,27}]heptacosa-1(26),5(14),6,8,10,12,21,23(27), 24-nonaen-4-one] belongs 15 nM; to `C[C@@H]1[C@H](N)CCCN1C(=O)c1cc(F)c2c(c1)nc(-c1cc3ccc4nc3n1CCCCCc1nc3ccccc3cc1C(=O)N[C@@H]4C)n2C1CC1` [Example 830, (2~{R})-21-[5-[(2~{R}, 3~{R})-3-amino-2-methyl-piperidine-1-carbonyl]-1-cyclopropyl-7-fluoro-benzimidazol-2-yl]-2-methyl-3,13,20,26-tetrazapentacyclo[18.5.2.0^ {5,14}.0^{7,12}.0^ {23,27}]heptacosa-1(26),5(14),6,8,10,12,21, 23(27),24-nonaen-4-one], 19 nM; to `COc1cc(C(=O)N2CC[C@@H](OC)[C@@H](N)C2)cc2nc(-c3cc4ccc5nc4n3CCCCCc3nccc(Cl)c3C(=O)N[C@@H]5C)n(C)c12` [Example 831, (2~{R})-17-[5-[(3~{S}, 4~{R})-3-amino-4-methoxy-piperidine-1-carbonyl]-7-methoxy-1-methyl-benzimidazol-2-yl]-6-chloro-2-methyl-3,9,16,22-tetrazatetracyclo [14.5.2.0^{5,10}.0^{19,23}] tricosa-1(22),5(10),6,8, 17,19(23),20-heptaen-4-one], 75 nM.
As for `C[C@@H]1c2ccc3cc(-c4nc5cc(C(=O)N6CCC[C@@H](N)[C@H]6C)cc(F)c5n4C4CC4)n(c3n2)CCCCCc2nc3ccccc3cc2C(=O)N1C` [Example 832, (2~{R})-21-[5-[(2~{R},3~{R})-3-amino-2-methyl-piperidine-1-carbonyl]-1-cyclopropyl-7-fluoro-benzimidazol-2-yl]-2,3-dimethyl-3,13,20,26-tetrazapentacyclo[18.5.2.0^ {5,14}.0^{7,12}.0^ {23,27}]heptacosa-1(26), 5(14),6,8,10,12,21,23(27), 24-nonaen-4-one], the IC50 turned out to be 13 nM.
As for `CO[C@@H]1CCN(C(=O)c2cc(F)c3c(c2)nc(-c2cc4ccc5nc4n2CCCCCc2nc4ccccc4cc2C(=O)N(C)[C@@H]5C)n3C2CC2)C[C@@H]1N` [Example 833, (2~{R})-21-[5-[(3~{S},4~ {R})-3-amino-4-methoxy-piperidine-1-carbonyl]-1-cyclopropyl-7-fluoro-benzimidazol-2-yl]-2,3-dimethyl-3,13,20,26-tetrazapentacyclo[18.5.2.0^ {5,14).0^{7,12}.0^ {23,27}]heptacosa-1(26),5(14),6,8,10,12, 21,23(27),24-nonaen-4-one], the figure is 61 nM.
To `CO[C@@H]1CCN(C(=O)c2cc(F)c3c(c2)nc(-c2cc4ccc5nc4n2CC(F)(F)CCC[C@@H]2C[C@H]2C(=O)N[C@@H]5C)n3[C@H]2C[C@@H]2F)C[C@@H]1N` [Example 834, (2~{R},5~{R},7~{R})-14-[5-[(3~{S),4~{R})-3-amino-4-methoxy-piperidine-1-carbonyl]-7-fluoro-1-[(1~{S},2~{S})-2-fluorocyclopropyl]benzimidazol-2-yl]-11,11-difluoro-2-methyl-3,13,19-triazatetracyclo [11.5.2.0^{5,7}.0^{16,20}] icosa-1(19),14,16(20), 17-tetraen-4-one] belongs 126 nM; to `C[C@@H]1[C@H](N)CCCN1C(=O)c1cc(F)c2c(c1)nc(-c1cc3ccc4nc3n1CC(F)(F)CCC[C@@H]1C[C@H]1C(=O)N[C@@H]4C)n2[C@H]1C[C@@H]1F` [Example 835, (2~{R},5~{R},7~{R})-14-[5-[(2~{R},3~{R})-3-amino-2-methyl-piperidine-1-carbonyl]-7-fluoro-1-[(1~{S},2~{S})-2-fluorocyclopropyl]benzimidazol-2-yl]-11,11-difluoro-2-methyl-3,13,19-triazatetracyclo[11.5.2.0^ {5,7}.0^{16,20}] icosa-1(19),14,16(20), 17-tetraen-4-one], 16 nM.
As for `CO[C@@H]1CCN(C(=O)c2cc(F)c3c(c2)nc(-c2cc4ccc5nc4n2CCCCCc2ccnc(C(F)(F)F)c2C(=O)N[C@@H]5C)n3C2CC2)C[C@@H]1N` [Example 836, (2~{R})-17-[5-[(3~{S}, 4~{R})-3-amino-4-methoxy-piperidine-1-carbonyl]-1-cyclopropyl-7-fluoro-benzimidazol-2-yl]-2-methyl-6-(trifluoromethyl)-3,7,16,22-tetrazatetracyclo[14.5.2.0^ {5,10}.0^{19,23}] tricosa-1(22),5(10), 6,8,17,19(23),20-heptaen-4-one], the figure is 32 nM; as for `CO[C@@H]1CCN(C(=O)c2cc(F)c3c(c2)nc(-c2cc4ccc5nc4n2CC(F)(F)CCC[C@@H]2C[C@H]2C(=O)N[C@@H]5C)n3[C@@H]2C[C@H]2F)C[C@@H]1N` [Example 837, (2~{R},5~{R},7~{R})-14-[5-[(3~{S},4~{R})-3-amino-4-methoxy-piperidine-1-carbonyl]-7-fluoro-1-[(1~{R},2~{R})-2-fluorocyclopropyl]benzimidazol-2-yl]-11,11-difluoro-2-methyl-3,13,19-triazatetracyclo [11.5.2.0^{5,7}.0^{16,20}] icosa-1(19),14,16(20), 17-tetraen-4-one], 30 nM.
In the case of `C[C@@H]1[C@H](N)CCCN1C(=O)c1cc(F)c2c(c1)nc(-c1cc3ccc4nc3n1CCCCCc1nc(C(F)(F)F)ccc1C(=O)N[C@@H]4C)n2C1CC1` [Example 838, (2~{R})-17-[5-[(2~{R}, 3~{R})-3-amino-2-methyl-piperidine-1-carbonyl]-1-cyclopropyl-7-fluoro-benzimidazol-2-yl]-2-methyl-8-(trifluoromethyl)-3,9,16,22-tetrazatetracyclo[14.5.2.0^ {5,10).0^{19,23}] tricosa-1(22),5(10), 6,8,17,19(23),20-heptaen-4-one], the IC50 was 49 nM.
To `C[C@H]1NC(=O)c2nc3ccccc3nc2CCCCCn2c(-c3nc4cc(C(=O)N5C[C@H](N)[C@@H]6CC[C@H]5C6)cc(F)c4n3C3CC3)cc3ccc1nc32` [Example 839, (2~{R})-21-[5-[(1~ {S},4~{R},5~{R})-4-amino-2-azabicyclo[3.2.1]octane-2-carbonyl]-1-cyclopropyl-7-fluoro-benzimidazol-2-yl]-2-methyl-3,6,13,20,26-pentazapentacyclo[18.5.2.0^ {5,14}.0^{7,12}.0^ {23,27}]heptacosa-1(26),5(14), 6,8,10,12,21,23(27),24-nonaen-4-one] belongs 13 nM.
To `C[C@H]1NC(=O)c2ccc(Cl)nc2CCCCCn2c(-c3nc4cc(C(=O)N5C[C@H](N)[C@@H]6CC[C@H]5C6)cc(F)c4n3[C@H]3C[C@@H]3F)cc3ccc1nc32` [Example 840, (2~{R})-17-[5-[(1~{S), 4~{R},5~{R})-4-amino-2-azabicyclo[3.2.1]octane-2-carbonyl]-7-fluoro-1-[(1~ {S},2~{S})-2-fluorocyclopropyl]benzimidazol-2-yl]-8-chloro-2-methyl-3,9,16,22-tetrazatetracyclo[14.5.2.0^ {5,10).0^{19,23}]tricosa-1(22), 5(10),6,8,17,19(23),20-heptaen-4-one] belongs 61 nM; to `C[C@H]1NC(=O)c2c(ccc3cccnc23)CCCCCn2c(-c3nc4cc(C(=O)N5C[C@H](N)[C@@H]6CC[C@H]5C6)cc(F)c4n3C3CC3)cc3ccc1nc32` [Example 841, (2~{R})-21-[5-[(1~{S},4~{R}, 5~{R})-4-amino-2-azabicyclo [3.2.1]octane-2-carbonyl]-1-cyclopropyl-7-fluoro-benzimidazol-2-yl]-2-methyl-3,7,20,26-tetrazapentacyclo [18.5.2.0^{5,14}.0^{6,1 1}.0^{23,27}]heptacosa-1(26),5(14),6(11),7,9,12,21, 23(27),24-nonaen-4-one], 17 nM.
As for `COc1cc(C(=O)N2C[C@H](N)[C@@H]3CC[C@H]2C3)cc2nc(-c3cc4ccc5nc4n3CCCCCc3nc(C(F)(F)F)ccc3C(=O)N[C@@H]5C)n(C)c12` [Example 842, (2~{R})-17-[5-[(1~{S},4~{R},5~ {R})-4-amino-2-azabicyclo[3.2.1]octane-2-carbonyl]-7-methoxy-1-methyl-benzimidazol-2-yl]-2-methyl-8-(trifluoromethyl)-3,9,16,22-tetrazatetracyclo[14.5.2.0^ {5,10}.0^{19,23}]tricosa-1(22), 5(10),6,8,17,19(23),20-heptaen-4-one], the figure is 49 nM; as for `C[C@H]1NC(=O)c2ccc(C(F)F)nc2CCCCCn2c(-c3nc4cc(C(=O)N5C[C@H](N)[C@@H]6CC[C@H]5C6)cc(F)c4n3C3CC3)cc3ccc1nc32` [Example 843, (2~{R})-17-[5-[(1~{S},4~ {R},5~{R})-4-amino-2-azabicyclo[3.2.1]octane-2-carbonyl]-1-cyclopropyl-7-fluoro-benzimidazol-2-yl]-8-(difluoromethyl)-2-methyl-3,9,16,22-tetrazatetracyclo [14.5.2.0^{5,10}.0^{19,23}] tricosa-1(22),5(10),6,8,17, 19(23),20-heptaen-4-one], 18 nM.

Source of the values: patent US11976083B2, “Inhibitors of peptidylarginine deiminases” (Gilead Sciences, Inc., priority 2020, dated 2024).
